Like-named read-outs stand apart in the source and are kept apart here.
Legend:
[1] = test system: primary microglia; assay: Proteolytic degradation of Aβ by primary microglia; assay type: cell-based, murine; conditions: for intracellular Aβ levels: 24 hours drug then 18 hours with 2 μg/mL soluble Aβ
Description: FIG. 5 illustrates graphs showing RXR agonists stimulate Aβ degradation.
Given the ability of RXR activation to drive LXR target gene expression, we predicted that agonist treatment should promote the proteolytic degradation of Aβ by microglia. […] Aβ uptake was unaffected by either drug treatment.

[2] = therapeutic doses, FDA alert issued on May 21, 2007; cited from earlier work
[3] = test system: microglia; assay: RXR mediated intracellular Aβ degradation with PPARγ or LXR inhibitors, microglia; assay type: cell-based; conditions: inhibitor pretreatment 1.5 hrs, Bexarotene 24 hours, 18 hours 2 ug/mL soluble Aβ
Description: (§1) FIG. 14 illustrates graphs showing RXR mediated intracellular Aβ degradation is prevented by inhibiting PPARγ or LXR.
(§2) To determine which heterodimer partners are involved in RXR activation driven Aβ intracellular degradation, we inhibited PPARγ and LXR by competitive inhibitors, TO and 22-s-Hydroxycholesterol, respectively. Aβ degradation mediated by either microglia (A) or astrocytes (B) is inhibited with either inhibitor to PPAR or LXR. Additionally, a co-treatment with both inhibitors reduces Aβ degradation further (FIG. 14).

[4] = test system: astrocytes; assay: RXR mediated intracellular Aβ degradation with PPARγ or LXR inhibitors, astrocytes; assay type: cell-based; conditions: inhibitor pretreatment 1.5 hrs, Bexarotene 24 hours, 18 hours 2 ug/mL soluble Aβ
Description: as §1, §2

[5] = test system: LXR target genes, ABCA1 and ABCG1; conditions: murine model of mixed dyslipidemis; cited from earlier work
[6] = test system: ApoE knock out astrocytes; assay: Intracellular Aβ degradation in ApoE knock out astrocytes; assay type: cell-based, murine
[7] = test system: ApoE knock out microglia; assay: Intracellular Aβ degradation in ApoE knock out microglia; assay type: cell-based, murine
[8] = test system: LXR target genes (ABCA1, ABCG1, ApoE); assay: RXR activation drives LXR target gene expression in primary astrocytes (Western analysis); conditions: primary murine astrocytes, increasing doses, 24 hours
Description: Cell lysates were subjected to Western analysis for ABCA1, ABCG1 and ApoE. Actin served as a load control.

[9] = test system: ApoE; assay: ApoE lipidation status in astrocyte conditioned media (native gel electrophoresis, Western); assay type: cell-based; conditions: confluent primary murine astrocytes, increasing doses, 48 hours
Description: FIG. 4 illustrates an immunoassay showing ApoE lipidation status is increased after RXR agonist treatment. […] Conditioned media was subjected to native gel electrophoresis followed by Western analysis for ApoE.
Astrocyte conditioned media was collected and assessed by native gel electrophoresis. […]. (FIG. 4).

[10] = test system: LXR target genes (ABCA1, ABCG1, ApoE); conditions: primary murine microglia, increasing doses, 24 hours
Description: Cell lysates were subjected to Western analysis for ABCA1, ABCG1, ApoE, and GAPDH as a loading control.

[11] = humans, extended periods of use; cited from earlier work
[12] = test system: CD36; assay: Expression of PPARγ target gene CD36 in primary astrocytes (qRT-PCR); conditions: confluent primary murine astrocytes, 10 nM, time course
Description: Cell lysates were subjected to quantitative RT-PCR. GAPDH served as a control.

[13] = test system: AD animal model; assay: Contextual fear conditioning in AD animal model; conditions: 6 month old AD model mice, 100 mg/kg/day oral gavage, 7 days
Description: Wildtype littermates were used as a control and were orally gavaged with water for 7 days (n=5). Following treatment, animals underwent contextual fear conditioning. The number of times the animals froze over a two minute period was assessed after training.

[14] = test system: primary astrocytes; assay: Proteolytic degradation of Aβ by primary astrocytes; assay type: cell-based, murine
Description: FIG. 12 illustrates a graph showing RXR agonist stimulate Aβ degradation in astrocytes.
As shown above, astrocytes can drive the expression of LXR target genes after RXR activation, we predicted that agonist treatment should also promote the intracellular degradation of Aβ by astrocytes. […]. Aβ uptake was not affected by drug treatments (data not shown).

CC1=C(/C=C/C(C)=C\C=C\C(C)=C\C(=O)O)C(C)(C)CCC1 [9cisRA]
Aβ uptake [1]: unaffected
intracellular Aβ levels [1]: dose-dependent reduction

CN(CCOc1ccc(CC2SC(=O)NC2=O)cc1)c1ccccn1 (centres unmarked) [rosiglitazone, 5-[4-[2-(N-methyl-N-(2-pyridyl)amino]ethoxy]benzyl]thiazolidine-2,4-dione]
risk of heart attack [2]: significantly increased risk of heart attack

CC(C)CC[C@H](O)[C@@H](C)[C@H]1CC[C@H]2[C@@H]3CC=C4C[C@@H](O)CC[C@]4(C)[C@H]3CC[C@]12C [22-s-Hydroxycholesterol]
Bexarotene-driven Aβ degradation in presence of inhibitor [3]: inhibited
Bexarotene-driven Aβ degradation in presence of inhibitor [4]: inhibited

C=C(c1ccc(C(=O)O)cc1)c1cc2c(cc1C)C(C)(C)CCC2(C)C [Bexarotene]
expression of the LXR target genes, ABCA1 and ABCG1 [5]: induce the expression of the LXR target genes, ABCA1 and ABCG1
intracellular Aβ degradation ([6]; with exogenous 1 μg/mL ApoE): the effect of intracellular Aβ degradation returns
intracellular Aβ degradation ([6]; without ApoE): no effect
intracellular Aβ degradation ([7]; with exogenous 1 μg/mL ApoE): the effect of intracellular Aβ degradation returns
intracellular Aβ degradation ([7]; without ApoE): no effect
Aβ uptake [1]: unaffected
intracellular Aβ levels [1]: dose-dependent reduction
expression of ABCA1, ABCG1, and ApoE [8]: drives the expression of ABCA1, ABCG1 and ApoE
lipidation status of ApoE [9]: increases the lipidation status of ApoE
expression of ABCA1, ABCG1, and ApoE [10]: drives the expression of ABCA1, ABCG1, and ApoE
clinical safety profile [11]: good safety profile
CD36 expression by qRT-PCR [12]: drives CD36, a PPARγ regulated gene, expression
contextual fear conditioning behavior [13]: significantly improves behavior
intracellular Aβ levels ([14]; 24 hours drug then 18 hours with 2 ug/mL soluble Aβ): dose dependent reduction
Aβ uptake ([14]; data not shown): not affected
